This passage reports Ki and IC50 results from patent US20110166121A1 (LG LIFE SCIENCES LTD., priority 2008, published 2011).

Experiment [1] concerns Human platelet aggregation caused by ADP. The experiment is described as follows: Inhibition of ADP-induced platelet aggregation (Mimic-human PRP). In kind it is cell-based. Conditions: 20 μM ADP, human platelet concentrate diluted with PPP, absorption at 595 nm. The gist of the method: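 Ki came from non-linear sigmoidal fits of inhibition, measured as the 3-min rise in absorbance at 595 nm after 20 μM ADP, relative to 0/20 μM ADP controls. Platelets (3–4×10^8/mL in PPP-diluted human PRP) were exposed to 0.01–30 μM compound for 20 min at room temperature beforehand.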

The target of a further experiment is T1, Human P2Y12 receptor (Homo sapiens, UniProt Q9H244).
T1 construct: expressed in transfected cells; host or cells: HEK cells
T1 sequence (Q9H244 whole entry): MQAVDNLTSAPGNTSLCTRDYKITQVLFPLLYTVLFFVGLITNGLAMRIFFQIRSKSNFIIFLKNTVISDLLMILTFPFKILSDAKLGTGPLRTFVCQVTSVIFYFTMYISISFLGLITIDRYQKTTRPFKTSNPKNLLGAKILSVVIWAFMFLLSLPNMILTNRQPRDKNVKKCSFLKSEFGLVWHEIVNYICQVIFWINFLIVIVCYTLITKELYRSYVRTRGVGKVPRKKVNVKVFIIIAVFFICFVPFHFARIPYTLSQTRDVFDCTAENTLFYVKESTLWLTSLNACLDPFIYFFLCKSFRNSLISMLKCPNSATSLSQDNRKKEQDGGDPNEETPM
The experiment is described as follows: Human P2Y12 receptor cell membrane binding assay with [3H] 2-Mes-ADP. Conditions: 1 nM [3H] 2-Mes-ADP, membranes of HEK cells expressing P2Y12 receptor; read-out: Binding activity (IC50). The gist of the method:
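Competition binding used 1 nM [3H]2-MeS-ADP on P2Y12-expressing HEK cell membranes for 1 h at room temperature, followed by filtration and scintillation counting.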

Broadly, the Ki is the equilibrium dissociation constant of an inhibitor or competing ligand from its target. The low end stands for higher affinity, the high end for lower affinity. The IC50 is the concentration that inhibits the measured activity by half.

Molecule `CCCc1cc2c(N3CCn4c(nnc4C(F)(F)F)C3)nc(N3CC[C@H](C(=O)OCOC(=O)C(C)(C)C)C3)nc2s1` [Example 1-59, (S)-1-[6-Propyl-4-(3-trifluoromethyl-5,6-dihydro-8H-[1,2,4]triazolo[4,3-a]pyrazin-7-yl)-thieno[2,3-d]pyrimidin-2-yl]-pyrrolidine-3-carboxylic acid 2,2-dimethyl-propionyloxymethyl ester] displayed an inhibition constant Ki in experiment [1] of 1450 nM. Besides, the IC50 at Human P2Y12 receptor worked out at 440 nM.
For `CCCc1cc2c(N3CCn4c(nnc4C(F)(F)F)C3)nc(N3CC[C@@H](C(=O)O)C3)nc2s1` [Example 1-61, (R)-1-[6-Propyl-4-(3-trifluoromethyl-5,6-dihydro-8H-[1,2,4]triazolo[4,3-a]pyrazin-7-yl)-thieno[2,3-d]pyrimidin-2-yl]-pyrrolidine-3-carboxylic acid], in experiment [1], the Ki is 7300 nM. The half-inhibitory concentration (IC50) on Human P2Y12 receptor was determined as 11 nM.
For `CCCc1cc2c(N3CCn4c(nnc4C(F)(F)F)C3)nc(N3CC[C@@H](C(=O)OC(C)C)C3)nc2s1` [Example 1-62, (R)-1-[6-Propyl-4-(3-trifluoromethyl-5,6-dihydro-8H-[1,2,4]triazolo[4,3-a]pyrazin-7-yl)-thieno[2,3-d]pyrimidin-2-yl]-pyrrolidine-3-carboxylic acid isopropyl ester], in that order: 200 nM and 320 nM.
As to `CCCc1cc2c(N3CCn4c(nnc4C(F)(F)F)C3)nc(N3CC[C@@H](C(=O)OCOC(=O)C(C)(C)C)C3)nc2s1` [Example 1-63, (R)-1-[6-Propyl-4-(3-trifluoromethyl-5,6-dihydro-8H-[1,2,4]triazolo[4,3-a]pyrazin-7-yl)-thieno[2,3-d]pyrimidin-2-yl]-pyrrolidine-3-carboxylic acid 2,2-dimethyl-propionyloxymethyl ester], the affinity in experiment [1] corresponds to a Ki of 1000 nM. Also, the IC50 on Human P2Y12 receptor worked out at 520 nM.
`CCCc1cc2c(N3CCn4c(nnc4C(F)(F)F)C3)nc(N(C)C)nc2s1` [Example 1-64, Dimethyl-[6-propyl-4-(3-trifluoromethyl-5,6-dihydro-8H-[1,2,4]triazolo[4,3-a]pyrazin-7-yl)-thieno[2,3-d]pyrimidin-2-yl]-amine] came in with a Ki in experiment [1] of more than 4000 nM. The 50% inhibitory concentration (IC50) at Human P2Y12 receptor was 170 nM.
Taken in the same sequence, the figures for `CCCc1cc2c(N3CCn4c(nnc4C(F)(F)F)C3)nc(N3CCc4ccccc4C3)nc2s1` [Example 1-65, 2-[6-Propyl-4-(3-trifluoromethyl-5,6-dihydro-8H-[1,2,4]triazolo[4,3-a]pyrazin-7-yl)-thieno[2,3-d]pyrimidin-2-yl]-1,2,3,4-tetrahydro-isoquinoline] were 260 nM and 257 nM.
`CCCc1cc2c(N3CCn4c(nnc4C(F)(F)F)C3)nc(N3CCc4cc(OC)c(OC)cc4C3)nc2s1` [Example 1-66, 6,7-Dimethoxy-2-[6-propyl-4-(3-trifluoromethyl-5,6-dihydro-8H-[1,2,4]triazolo[4,3-a]pyrazin-7-yl)-thieno[2,3-d]pyrimidin-2-yl]-1,2,3,4-tetrahydro-isoquinoline] showed an inhibition constant Ki in experiment [1] of 1400 nM. Further, the IC50 at Human P2Y12 receptor was 200 nM.
Taken in the same sequence, the figures for `CCCc1cc2c(N3CCn4c(nnc4C(F)(F)F)C3)nc(N3CCc4cc(OC)c(OC)cc4C3CC)nc2s1` (stereo not shown) [Example 1-67, 1-Ethyl-6,7-dimethoxy-2-[6-propyl-4-(3-trifluoromethyl-5,6-dihydro-8H-[1,2,4]triazolo[4,3-a]pyrazin-7-yl)-thieno[2,3-d]pyrimidin-2-yl]-1,2,3,4-tetrahydro-isoquinoline] were more than 4000 nM and 643 nM.
`CCCc1cc2c(N3CCn4c(nnc4C(F)(F)F)C3)nc(N3CCNc4ccccc43)nc2s1` [Example 1-68, 1-[6-Propyl-4-(3-trifluoromethyl-5,6-dihydro-8H-[1,2,4]triazolo[4,3-a]pyrazin-7-yl)-thieno[2,3-d]pyrimidin-2-yl]-1,2,3,4-tetrahydro-quinoxaline] registered a Ki in experiment [1] of 430 nM. Also, the IC50 on Human P2Y12 receptor came to 100 nM.
Molecule `CCCc1cc2c(N3CCn4c(nnc4C(F)(F)F)C3)nc(N3CCC(N)CC3)nc2s1` [Example 1-69, 1-[6-Propyl-4-(3-trifluoromethyl-5,6-dihydro-8H-[1,2,4]triazolo[4,3-a]pyrazin-7-yl)-thieno[2,3-d]pyrimidin-2-yl]-piperidin-4-ylamine] came in with an inhibition constant (Ki) in experiment [1] of 300 nM. In addition, the 50% inhibitory concentration (IC50) at Human P2Y12 receptor turned out to be 82 nM.
Taken in the same sequence, the figures for `CCCc1cc2c(N3CCn4c(nnc4C(F)(F)F)C3)nc(N3CCCC(N)C3)nc2s1` (stereo not shown) [Example 1-70, 1-[6-Propyl-4-(3-trifluoromethyl-5,6-dihydro-8H-[1,2,4]triazolo[4,3-a]pyrazin-7-yl)-thieno[2,3-d]pyrimidin-2-yl]-piperidin-3-ylamine] were 110 nM and 167 nM.
For `CCCc1cc2c(N3CCn4c(nnc4C(F)(F)F)C3)nc(N3CCc4ccccc43)nc2s1` [Example 1-71, 7-[2-(2,3-Dihydro-indol-1-yl)-6-propyl-thieno[2,3-d]pyrimidin-4-yl]-3-trifluoromethyl-5,6,7,8-tetrahydro-[1,2,4]triazolo[4,3-a]pyrazine], in that order: more than 4000 nM and 526 nM.
Taken in the same sequence, the figures for `CCCc1cc2c(N3CCn4c(nnc4C(F)(F)F)C3)nc(N3Cc4ccccc4C3)nc2s1` [Example 1-72, 7-[2-(1,3-Dihydro-isoindol-2-yl)-6-propyl-thieno[2,3-d]pyrimidin-4-yl]-3-trifluoromethyl-5,6,7,8-tetrahydro-[1,2,4]triazolo[4,3-a]pyrazine] were more than 4000 nM and 517 nM.
Consider `CCCc1cc2c(N3CCn4c(nnc4C(F)(F)F)C3)nc(-n3ccc4ccccc43)nc2s1` [Example 1-73, 7-(2-Indol-1-yl-6-propyl-thieno[2,3-d]pyrimidin-4-yl)-3-trifluoromethyl-5,6,7,8-tetrahydro-[1,2,4]triazolo[4,3-a]pyrazine], for which the inhibitory constant (Ki) in experiment [1] is more than 4000 nM. The IC50 at Human P2Y12 receptor was determined as 360 nM.
With `CCCc1cc2c(N3CCn4c(nnc4C(F)(F)F)C3)nc(N3CCn4c(nnc4C(F)(F)F)C3)nc2s1` [Example 1-74, 7,7′-(6-propylthieno[2,3-d]pyrimidine-2,4-diyl)bis[3-(trifluoromethyl)-5,6,7,8-tetrahydro[1,2,4]triazolo[4,3-a]pyrazine]], the Ki in experiment [1] stood at 40 nM. The IC50 at Human P2Y12 receptor stood at 33 nM.
With `CCCc1cc2c(N3CCn4c(nnc4C(F)(F)F)C3)nc(N3CCn4cnnc4C3)nc2s1` [Example 1-75, 7-[2-(5,6-Dihydro-8H-[1,2,4]triazolo[4,3-a]pyrazin-7-yl)-6-propyl-thieno[2,3-d]pyrimidin-4-yl]-3-trifluoromethyl-5,6,7,8-tetrahydro-[1,2,4]triazolo[4,3-a]pyrazine], in experiment [1], the inhibition constant Ki was 7 nM. The half-maximal inhibitory concentration (IC50) on Human P2Y12 receptor was found to be 32 nM.
For `CCCc1cc2c(N3CCn4c(nnc4C(F)(F)F)C3)nc(N3CCn4ccnc4C3)nc2s1` [Example 1-77, 7-[2-(5,6-Dihydro-8H-imidazo[1,2-a]pyrazin-7-yl)-6-propyl-thieno[2,3-d]pyrimidin-4-yl]-3-trifluoromethyl-5,6,7,8-tetrahydro-[1,2,4]triazolo[4,3-a]pyrazine], in that order: 60 nM and 47 nM.
Molecule `CCCc1cc2c(N3CCn4c(nnc4C(F)(F)F)C3)nc(N3CCn4cc(C(F)(F)F)nc4C3)nc2s1` [Example 1-78, 7-[6-Propyl-2-(2-trifluoromethyl-5,6-dihydro-8H-imidazo[1,2-a]pyrazin-7-)-thieno[2,3-d]pyrimidin-4-yl]-3-trifluoromethyl-5,6,7,8-tetrahydro-[1,2,4]triazolo[4,3-a]pyrazine] had an inhibitory constant (Ki) in experiment [1] of 200 nM. Moreover, the concentration for half-maximal inhibition (IC50) on Human P2Y12 receptor came out at 110 nM.
For `CCCc1cc2c(N3CCn4c(nnc4C(F)(F)F)C3)nc(N3CCc4sccc4C3)nc2s1` [Example 1-79, 7-[2-(6,7-Dihydro-4H-thieno[3,2-c]pyridin-5-yl)-6-propyl-thieno[2,3-d]pyrimidin-4-yl]-3-trifluoromethyl-5,6,7,8-tetrahydro-[1,2,4]triazolo[4,3-a]pyrazine], in that order: 1250 nM and 370 nM.
Taken in the same sequence, the figures for `CCCc1cc2c(N3CCn4c(nnc4C(F)(F)F)C3)nc(NC(Cc3ccc(O)cc3)C(=O)O)nc2s1` (stereo not shown) [Example 1-81, 3-(4-Hydroxy-phenyl)-2-[6-propyl-4-(3-trifluoromethyl-5,6-dihydro-8H-[1,2,4]triazolo[4,3-a]pyrazin-7-yl)-thieno[2,3-d]pyrimidin-2-ylamino]-propionic acid] were 2300 nM and 320 nM.
For `CCCc1cc2c(N3CCn4c(nnc4C(F)(F)F)C3)nc(N3CCN(C(=O)C(F)(F)F)CC3)nc2s1` [Example 1-82, 2,2,2-Trifluoro-1-{4-[6-propyl-4-(3-trifluoromethyl-5,6-dihydro-8H-[1,2,4]triazolo[4,3-a]pyrazin-7-yl)-thieno[2,3-d]pyrimidin-2-yl]-piperazin-1-yl}-ethanone], in that order: more than 4000 nM and 14300 nM.
On to `CCCc1cc2c(N3CCn4c(nnc4C(F)(F)F)C3)nc(NC3CNC3)nc2s1` [Example 1-83, Azetidin-3-yl-[6-propyl-4-(3-trifluoromethyl-5,6-dihydro-8H-[1,2,4]triazolo[4,3-a]pyrazin-7-yl)-thieno[2,3-d]pyrimidin-2-yl]-amine], for which the Ki in experiment [1] came out at 7 nM. At Human P2Y12 receptor, the IC50 was 320 nM.
Consider `CCCc1cc2c(N3CCn4c(nnc4C(F)(F)F)C3)nc(N3CC(OC(C)=O)C3)nc2s1` [Example 1-84, Acetic Acid 1-[6-propyl-4-(3-trifluoromethyl-5,6-dihydro-8H-[1,2,4]triazolo[4,3-a]pyrazin-7-yl)-thieno[2,3-d]pyrimidin-2-yl]-azetidin-3-yl ester], for which, in experiment [1], affinity was put at a Ki of 73 nM. The IC50 at Human P2Y12 receptor is 160 nM.
